Data on 2 compounds can be found in US9856507B2, “Method for screening food ingredients and food compositions” (JAPANESE FOUNDATION FOR CANCER RESEARCH, priority 2013, dated 2018).

Data set [1] has as its system liver cancer. The experiment in a line: Liver cancer development in DMBA-treated mice fed high-fat diets, antibiotic in drinking water. It counts as in vivo. Conditions: dissected at 30th week; antibiotic from 13 weeks old; compared with control. An excerpt: An acetone solution containing 0.5% of the carcinogenic substance DMBA (7,12-dimethylbenz[a]anthracene) was applied once to the backs of wild-type (C57BL/6) neonatal mice. The neonatal mice were raised together with their mother mouse by feeding with normal diets (ND) or high-fat diet (HFD) until 4 weeks old. The high-fat diets used were D12492 (Rodent Diet with 60% kcal % Fat; Research Diets, Inc., USA). The neonatal mice were weaned at 4 weeks old and subsequently raised with normal diets or high-fat diet. At 30 weeks old, their livers and lungs were excised, and the presence or absence of cancer development was analyzed. The average body weight of the mice at the time of dissection was 33 g for the mice fed normal diets and 51 g for the mice fed high-fat diets. The mice fed high-fat diets had approximately 1.5 times the body weights of the mice fed normal diets.
DMBA was applied to wild-type neonatal mice, followed by high-fat diet feeding. From 13 weeks old, an antibiotic cocktail (4Abx, antibiotic cocktail administration group) or vancomycin (VCM, vancomycin administration group) mixed with drinking water was administered to the mice. At the 30th week after the start of the raising, their livers were excised, and liver cancer development was analyzed. […]
The mice of each group were dissected at the 30th week, and liver cancer development was analyzed (FIGS. 4C and 4D).

In another data set the test system is intestinal bacteria. Nature of the data set: Level of gene encoding intestinal bacterial 16S rRNA after antibiotic administration. It counts as in vivo, mice. The note with it: 17 weeks after antibiotic administration, 30 weeks after birth; high-fat diet, drinking water. As to the method: DMBA was applied to wild-type neonatal mice, followed by high-fat diet feeding. From 13 weeks old, an antibiotic cocktail (4Abx, antibiotic cocktail administration group) or vancomycin (VCM, vancomycin administration group) mixed with drinking water was administered to the mice. At the 30th week after the start of the raising, their livers were excised, and liver cancer development was analyzed. On the other hand, the raising of a control group was continued in the same way as the aforementioned raising up to the 13th week. The antibiotic cocktail contained ampicillin (1 g/l), neomycin (1 g/l), metronidazole (1 g/l), and vancomycin (500 mg/l). Also, in the case of administering vancomycin alone, 500 mg/l was administered.

The next data set relates to gut microbiota. The experiment in a line: Gut microbiota analysis by PCR of 16S rRNA gene from feces. It counts as in vivo, mice. As to the method: Next, alteration in gut microbiota caused by antibiotic administration conducted in Example 3 will be shown. In the experimental schedule shown in FIG. 4A, 3 groups were used: a group fed normal diets, a group fed high-fat diets, and a group fed high-fat diets and also given vancomycin. The gut microbiota was analyzed.
The gut microbiota was identified by PCR analysis (Non Patent Literatures 11 and 12). Specifically, DNA was extracted from the feces and purified. The gene encoding 16S rRNA in many types of bacteria was amplified by PCR using universal primers. The V1-V4 hypervariable regions were further amplified, followed by identification.

Data set [2] relates to liver cancer. The experiment in a line: Liver cancer induction by oral deoxycholic acid in mice fed high-fat diets and given antibiotic cocktail. It counts as in vivo. The note with it: 40 μg/g body weight orally three times a week; HFD + antibiotic cocktail; n=3. Here is the method:
From the 13th week after the start of the raising, the antibiotic cocktail was administered to mice fed high-fat diets, which were then further raised. To these mice, 40 μg/g body weight of deoxycholic acid (DCA) or only a vehicle as a control was orally administered three times a week (FIG. 6A). […] The mice given deoxycholic acid developed a large number of liver tumors (indicated by Δ in the diagram), whereas cancer development was rarely seen in the control mouse group given only the vehicle. […] The cancer was rarely developed in the control mouse group given only the vehicle, and even if the cancer was developed, its tumor size was small. On the other hand, the deoxycholic acid administration group had multiple cancer (25 or more tumors per individual), and also, its size was large.

Regarding `CN[C@H](CC(C)C)C(=O)N[C@H]1C(=O)N[C@@H](CC(N)=O)C(=O)N[C@H]2C(=O)N[C@H]3C(=O)N[C@H](C(=O)N[C@H](C(=O)O)c4cc(O)cc(O)c4-c4cc3ccc4O)[C@H](O)c3ccc(c(Cl)c3)Oc3cc2cc(c3O[C@@H]2O[C@H](CO)[C@@H](O)[C@H](O)[C@H]2O[C@H]2C[C@](C)(N)[C@H](O)[C@H](C)O2)Oc2ccc(cc2Cl)[C@H]1O` [vancomycin], the “liver cancer development (tumor number and size)” value in the data set on liver cancer [1] was “developed no liver cancer or developed liver cancer with a smaller tumor number and a smaller size as compared with the control”. For the same compound, in the data set on intestinal bacteria, the “amount of intestinal bacteria (level of gene encoding 16S rRNA)” value was “decreased into a very small level”. The “Gram-negative microbiota, average” value in the data set on gut microbiota (HFD+VCM group, on average (FIG. 5)) came out at 99%. Further, the “cluster XI of the genus Clostridium” value with gut microbiota (high-fat diet plus vancomycin group, n=2) turned out to be 0%.
Turning to `C[C@H](CCC(=O)O)[C@H]1CC[C@H]2[C@@H]3CC[C@@H]4C[C@H](O)CC[C@]4(C)[C@H]3C[C@H](O)[C@]12C` [deoxycholic acid], in the data set on liver cancer [2], the “tumor size (liver)” value was “large” and the “tumors per individual (liver)” value was at least 25.
